Results: patent US20160115540A1, “PRODRUGS AND DRUGS” (Biogen MA Inc., priority 2013, published 2016)
Counter-ions that a name gives are not always drawn.

Tested on: whole blood
Test: Transcriptional profiling on Affymetrix GeneChips, single dose, naïve mice: whole blood
Format: in vivo, C57BL/6 mice
Settings: for Number of differentially expressed genes identified: Whole blood: Naïve, Single Dose
Procedure: Treated mice were sacrificed at 2, 7, or 12 hours. Tissues (liver, spleen, kidney, jejunum, cortex, hippocampus, striatum and whole blood) were collected and analyzed by transcriptional profiling on mouse Affymetrix GeneChips. […] While the experiments were performed in mice, the human homolog of the identified murine gene transcript is included in the tables. Additional genes that were identified in the study are provided in APPENDIX A, filed herewith on even date, the contents of which are herein incorporated by reference in their entirety. Additional studies are described in the Examples, and genes identified in the studies are provided in […], and APPENDIX E filed herewith on even date, the contents of each of which are herein incorporated by reference in their entirety. […] Tissues (liver, spleen, kidney, jejunum, cortex, hippocampus, striatum and whole blood) were collected and analyzed by transcriptional profiling on mouse Affymetrix GeneChips. […] Animals were exposed to CO2 and whole blood collected via cardiac puncture. Two 100 μl aliquots of whole blood were collected in 1.5 mL microcentrifuge tubes and snap frozen in liquid nitrogen. Peripheral (liver, spleen, kidney and jejunum) and CNS brain (cerebellum, hippocampus, striatum and cortex) tissues were harvested and snap frozen in liquid nitrogen, with special care taken to collect tissues of similar size and from the same location. All samples were stored at -80° C. until RNA extraction was conducted. 50 ul of snap frozen mouse blood was re-suspended in lysis buffer with proteinase K and arrayed into deep-well plates for automated RNA extraction. RNA extractions were completed on […] (Beckman Coulter, Indianapolis, Ind.) using Agencourt RNAdvance Blood kit (Part number A35604) according to the manufacturer's specifications. RNA integrity was assessed using the HT RNA reagent kit (Part number 760410, Caliper Life Sciences, Hopkinton, Mass.) using a LabChip GX (PerkinElmer, Waltham, Mass.). RNA samples with a RQS score of >8.0 were considered high quality for downstream microarray processing. […] Two micrograms of biotin labeled […] probe were hybridized to Affymetrix GeneChip Affymetrix HT_MG-430_PM plate arrays with modified conditions as described in […] et al. Washing and staining of the hybridized arrays were completed as described in the GeneChip Expression analysis technical manual for HT plate arrays using the Genechip® Array Station (Affymetrix, Santa Clara, Calif.) with modifications as described in […] et al. The processed GeneChip® plate arrays were scanned using GeneTitan scanner (Affymetrix, Santa Clara, Calif.). Affymetrix scans were subject to quality control (QC) measures. These tests included a visual inspection of the distribution of raw signal intensities and an assessment of RNA degradation, relative log expression (RLE), and normalized unsealed standard error (NUSE). All sample scans that passed these QC metrics were included in the analysis. All CEL files were subjected to GC-content-based Robust Multi-array Average (GCRMA) normalization (version 2.20.0) (Irizarry R A, et al. Nucleic Acids Res 2003; 31:e15; Li C, et al. Genome Biol 2001; 2:[…]0032). […] Stat Appl Genet Mol Biol 2004; 3:Article3). […] Springer Science+Business Media 2005).

[1] = 100 mpk, vs Vehicle, 2 h after last dosing
[2] = 100 mpk, vs Vehicle, 7 h after last dosing
[3] = 100 mpk, vs Vehicle, 12 h after last dosing
[4] = whole blood, 100DMF-vs-Veh, 2 h
[5] = whole blood, 100DMF-vs-Veh, 12 h
[6] = whole blood, 100MMF-vs-Veh, 12 h

COC(=O)/C=C/C(=O)OC [DMF, dimethyl fumarate]
Number of genes, DMF Only / MMF Only (Blood): 6 | Cpsf2 (1420937_PM_at) differential expression (Blood, 2 hr): −1.65 | Gzma (1417898_PM_a_at) differential expression (Blood, 12 hr): 1.92 | Klrb1b (1445399_PM_at) differential expression (Blood, 12 hr): 1.65 | Klrc1 (1425005_PM_at) differential expression (Blood, 12 hr): 1.85 | Klre1 (1458642_PM_at) differential expression (Blood, 12 hr): 1.85 | Ncr1 (1422089_PM_at) differential expression (Blood, 12 hr): 1.86 | Number of differentially expressed genes identified: Whole blood (100 mpk DMF-vs-100 mpk MMF, 2 h after last dosing): 0 | Number of differentially expressed genes identified: Whole blood (100 mpk DMF-vs-100 mpk MMF, 7 h after last dosing): 1 | Number of differentially expressed genes identified: Whole blood (100 mpk DMF-vs-100 mpk MMF, 12 h after last dosing): 0 | Number of differentially expressed genes identified: Whole blood [1]: 2 | Number of differentially expressed genes identified: Whole blood [2]: 0 | Number of differentially expressed genes identified: Whole blood [3]: 5 | differentially expressed genes (whole blood, 100DMF-vs-100MMF, 2 h): None | FC Lman1 (1444037_PM_at) (whole blood, 100DMF-vs-100MMF, 7 h): 1.63 | differentially expressed genes (whole blood, 100DMF-vs-100MMF, 12 h): None | FC Cpsf2 (1420937_PM_at) [4]: −1.65 | FC probe 1441373_PM_at [4]: −1.70 | FC Gzma (1417898_PM_a_at) [5]: 1.92 | FC Klrb1b (1445399_PM_at) [5]: 1.65 | FC Klrc1 (1425005_PM_at) [5]: 1.85 | FC Klre1 (1458642_PM_at) [5]: 1.85 | FC Ncr1 (1422089_PM_at) [5]: 1.86 | differentially expressed genes (whole blood, 100DMF-vs-Veh, 7 h): None

COC(=O)/C=C/C(=O)O [MMF, monomethyl fumarate]
Number of genes, DMF Only / MMF Only (Blood): 2 | Bcl3 (1418133_PM_at) differential expression (Blood, 2 hr): −1.23 | Sdc1 (1415943_PM_at) differential expression (Blood, 12 hr): −1.96 | Number of differentially expressed genes identified: Whole blood [1]: 1 | Number of differentially expressed genes identified: Whole blood [2]: 0 | Number of differentially expressed genes identified: Whole blood [3]: 2 | FC Bcl3 (1418133_PM_at) (whole blood, 100MMF-vs-Veh, 2 h): −1.67 | FC 0710007G10Rik /// Tmem175 (1435109_PM_at) [6]: −1.52 | FC Sdc1 (1415943_PM_at) [6]: −1.96 | Bcl3 mRNA fold change vs vehicle (whole blood, 2 hr after single 100 mg/kg oral dose): −1.23 | Sdc1 mRNA fold change vs vehicle (whole blood, 12 hr after single 100 mg/kg oral dose): −1.96
